Measurements: EP4745135A1 (Gluetacs Therapeutics (Shanghai) Co., Ltd., priority 2023, dated 2025)

How the values were obtained:
CK1α = biological target: T1, CK1α (Homo sapiens, UniProt P48729+Q96SW2); test: Western blot, degradation of substrate protein in hPBMCs; format: cell-based
T1 construct: effects of the compounds of the present disclosure on the expression of target proteins in cells; endogenous in cells; host or cells: human PBMCs (Milecell Biotechnologies)

IKZF1 = biological target: T2, IKZF1 (Homo sapiens, UniProt Q13422+Q96SW2); test: as above; format: cell-based
T2 construct: effects of the compounds of the present disclosure on the expression of target proteins in cells; endogenous in cells; host or cells: human PBMCs (Milecell Biotechnologies)
T2 sequence (Q13422 whole entry): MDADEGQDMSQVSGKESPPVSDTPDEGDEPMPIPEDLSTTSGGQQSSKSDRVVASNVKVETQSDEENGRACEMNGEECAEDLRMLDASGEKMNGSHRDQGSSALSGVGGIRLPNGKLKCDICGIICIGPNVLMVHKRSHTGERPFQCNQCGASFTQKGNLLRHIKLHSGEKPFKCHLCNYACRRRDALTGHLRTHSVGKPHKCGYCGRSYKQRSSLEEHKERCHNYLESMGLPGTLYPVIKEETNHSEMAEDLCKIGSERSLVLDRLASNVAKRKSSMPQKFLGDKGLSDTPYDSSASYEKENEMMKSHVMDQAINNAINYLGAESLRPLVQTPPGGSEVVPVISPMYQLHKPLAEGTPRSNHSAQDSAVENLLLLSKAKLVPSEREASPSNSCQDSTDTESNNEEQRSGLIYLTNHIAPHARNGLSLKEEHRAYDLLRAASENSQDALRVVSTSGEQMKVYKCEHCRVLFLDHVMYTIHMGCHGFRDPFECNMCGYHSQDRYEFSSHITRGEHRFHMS
T2 sequence (Q96SW2 whole entry): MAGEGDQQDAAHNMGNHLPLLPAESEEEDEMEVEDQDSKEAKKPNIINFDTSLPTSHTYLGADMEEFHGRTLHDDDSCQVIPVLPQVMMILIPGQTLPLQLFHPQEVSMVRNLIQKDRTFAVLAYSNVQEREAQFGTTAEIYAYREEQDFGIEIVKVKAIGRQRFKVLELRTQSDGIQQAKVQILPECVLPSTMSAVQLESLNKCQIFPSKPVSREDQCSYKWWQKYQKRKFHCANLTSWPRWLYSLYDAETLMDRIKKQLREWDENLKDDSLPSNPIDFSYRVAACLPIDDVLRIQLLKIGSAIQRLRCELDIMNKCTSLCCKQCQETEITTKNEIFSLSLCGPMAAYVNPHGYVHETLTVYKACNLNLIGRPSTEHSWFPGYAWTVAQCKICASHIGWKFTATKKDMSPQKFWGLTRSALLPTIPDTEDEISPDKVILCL
T2 sequence (Q16531 whole entry partner): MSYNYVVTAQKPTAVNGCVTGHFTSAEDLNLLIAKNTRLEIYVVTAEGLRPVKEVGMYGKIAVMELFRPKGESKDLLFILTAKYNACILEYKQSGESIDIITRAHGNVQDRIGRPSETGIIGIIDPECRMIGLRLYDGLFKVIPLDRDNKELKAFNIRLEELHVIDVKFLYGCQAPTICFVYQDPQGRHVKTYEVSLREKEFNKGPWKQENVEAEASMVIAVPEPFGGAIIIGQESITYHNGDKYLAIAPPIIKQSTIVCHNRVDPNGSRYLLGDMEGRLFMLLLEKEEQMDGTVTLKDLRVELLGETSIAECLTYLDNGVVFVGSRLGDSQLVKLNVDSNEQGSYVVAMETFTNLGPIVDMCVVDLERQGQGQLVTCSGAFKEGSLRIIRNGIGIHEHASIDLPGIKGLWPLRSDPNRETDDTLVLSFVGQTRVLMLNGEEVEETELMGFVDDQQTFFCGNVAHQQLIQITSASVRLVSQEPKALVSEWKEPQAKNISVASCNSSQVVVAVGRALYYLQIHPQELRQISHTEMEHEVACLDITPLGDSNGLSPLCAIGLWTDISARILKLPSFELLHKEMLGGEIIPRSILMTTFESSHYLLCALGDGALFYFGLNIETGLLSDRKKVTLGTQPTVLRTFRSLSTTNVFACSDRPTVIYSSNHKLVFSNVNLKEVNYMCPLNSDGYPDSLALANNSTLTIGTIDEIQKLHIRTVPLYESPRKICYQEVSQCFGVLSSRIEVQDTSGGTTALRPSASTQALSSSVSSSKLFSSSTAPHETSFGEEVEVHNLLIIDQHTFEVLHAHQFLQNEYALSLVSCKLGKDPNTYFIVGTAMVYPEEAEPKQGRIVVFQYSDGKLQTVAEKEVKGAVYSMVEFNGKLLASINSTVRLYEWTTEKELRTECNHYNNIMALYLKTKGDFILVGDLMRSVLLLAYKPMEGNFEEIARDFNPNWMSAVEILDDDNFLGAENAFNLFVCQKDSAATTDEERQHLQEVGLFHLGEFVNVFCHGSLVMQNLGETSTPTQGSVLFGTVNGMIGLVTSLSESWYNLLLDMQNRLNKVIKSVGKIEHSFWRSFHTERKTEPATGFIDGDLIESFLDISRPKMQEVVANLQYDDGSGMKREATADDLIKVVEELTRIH

IKZF2 = biological target: T3, IKZF2 (Homo sapiens, UniProt Q96SW2+Q9UKS7); test: as above; format: cell-based
T3 construct: effects of the compounds of the present disclosure on the expression of target proteins in cells; endogenous in cells; host or cells: human PBMCs (Milecell Biotechnologies)
T3 sequence (Q9UKS7 whole entry): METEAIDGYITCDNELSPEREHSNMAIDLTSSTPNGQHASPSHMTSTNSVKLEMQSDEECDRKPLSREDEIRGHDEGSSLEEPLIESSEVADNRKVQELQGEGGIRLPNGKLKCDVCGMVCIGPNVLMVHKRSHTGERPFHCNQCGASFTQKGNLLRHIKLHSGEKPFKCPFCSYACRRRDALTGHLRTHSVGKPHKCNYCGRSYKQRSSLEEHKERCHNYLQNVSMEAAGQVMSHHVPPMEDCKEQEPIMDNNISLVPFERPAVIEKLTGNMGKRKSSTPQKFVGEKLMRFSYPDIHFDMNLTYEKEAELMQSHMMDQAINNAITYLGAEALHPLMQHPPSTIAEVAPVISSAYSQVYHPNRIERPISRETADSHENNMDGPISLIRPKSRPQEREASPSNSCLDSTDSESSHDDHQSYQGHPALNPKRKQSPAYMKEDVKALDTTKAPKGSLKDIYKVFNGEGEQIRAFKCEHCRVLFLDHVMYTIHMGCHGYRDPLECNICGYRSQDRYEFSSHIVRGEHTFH
T3 sequence (Q96SW2 whole entry): as the sequence (Q96SW2 whole entry) above
T3 sequence (Q16531 whole entry partner): as the sequence (Q16531 whole entry partner) above

IKZF3 = biological target: T4, IKZF3 (Homo sapiens, UniProt Q96SW2+Q9UKT9); test: as above; format: cell-based
T4 construct: effects of the compounds of the present disclosure on the expression of target proteins in cells; endogenous in cells; host or cells: human PBMCs (Milecell Biotechnologies)
T4 sequence (Q9UKT9 whole entry): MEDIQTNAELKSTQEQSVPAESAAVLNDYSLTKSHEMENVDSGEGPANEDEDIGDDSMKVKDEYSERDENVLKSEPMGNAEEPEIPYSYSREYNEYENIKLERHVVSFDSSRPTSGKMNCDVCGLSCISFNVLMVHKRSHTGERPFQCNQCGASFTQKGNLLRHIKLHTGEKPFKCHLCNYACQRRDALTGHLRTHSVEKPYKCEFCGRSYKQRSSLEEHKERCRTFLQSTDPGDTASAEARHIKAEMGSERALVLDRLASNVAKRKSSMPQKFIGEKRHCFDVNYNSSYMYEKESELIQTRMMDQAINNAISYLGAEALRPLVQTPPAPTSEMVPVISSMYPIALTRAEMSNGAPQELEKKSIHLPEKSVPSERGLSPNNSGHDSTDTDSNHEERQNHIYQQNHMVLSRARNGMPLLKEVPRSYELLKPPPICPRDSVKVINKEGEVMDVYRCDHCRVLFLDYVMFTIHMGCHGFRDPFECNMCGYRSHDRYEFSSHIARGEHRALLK
T4 sequence (Q96SW2 whole entry): as the sequence (Q96SW2 whole entry) above
T4 sequence (Q16531 whole entry partner): as the sequence (Q16531 whole entry partner) above

WEE1 = biological target: T5, WEE1 (Homo sapiens, UniProt P30291+Q96SW2); test: as above; format: cell-based
T5 construct: effects of the compounds of the present disclosure on the expression of target proteins in cells; endogenous in cells; host or cells: human PBMCs (Milecell Biotechnologies)
T5 sequence (P30291 whole entry): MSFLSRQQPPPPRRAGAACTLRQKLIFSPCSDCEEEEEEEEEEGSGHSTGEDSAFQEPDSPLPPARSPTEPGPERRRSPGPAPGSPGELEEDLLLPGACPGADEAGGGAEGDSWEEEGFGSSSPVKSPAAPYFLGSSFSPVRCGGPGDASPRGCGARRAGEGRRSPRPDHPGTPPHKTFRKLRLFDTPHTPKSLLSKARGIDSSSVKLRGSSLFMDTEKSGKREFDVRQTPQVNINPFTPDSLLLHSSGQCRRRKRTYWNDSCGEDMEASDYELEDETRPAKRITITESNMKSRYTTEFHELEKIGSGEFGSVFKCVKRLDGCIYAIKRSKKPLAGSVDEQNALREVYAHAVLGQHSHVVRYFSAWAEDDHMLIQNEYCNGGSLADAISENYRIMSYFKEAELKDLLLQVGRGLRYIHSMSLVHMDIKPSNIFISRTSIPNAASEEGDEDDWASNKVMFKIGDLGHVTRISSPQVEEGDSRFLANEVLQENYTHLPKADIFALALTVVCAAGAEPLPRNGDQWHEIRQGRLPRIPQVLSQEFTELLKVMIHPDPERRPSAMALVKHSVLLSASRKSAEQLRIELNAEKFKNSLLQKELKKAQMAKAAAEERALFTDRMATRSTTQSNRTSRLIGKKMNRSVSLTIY
T5 sequence (Q96SW2 whole entry): as the sequence (Q96SW2 whole entry) above
T5 sequence (Q16531 whole entry partner): as the sequence (Q16531 whole entry partner) above

GSPT1 = test: as above; format: cell-based, Human
[1] = biological target: T6, human Cereblon WT GST-tagged protein (Homo sapiens, UniProt Q96SW2); test: CRBN-binding affinity, HTRF (CEREBLON BINDING kit); details: for inhibition at 0.5 µM: read-out: Inhibition Rate at 0.5 µM (%); for inhibition at 2 µM: read-out: Inhibition Rate at 2 µM (%)
T6 construct: purchased CISBIO 64BDCRBNPEH
T6 sequence (Q96SW2 whole entry): as the sequence (Q96SW2 whole entry) above

[2] = test system: Human multiple myeloma cell (MM.1S); test: Tumor cell proliferation inhibition (CellTiter-Meiluncell luminescent cell viability assay); details: for inhibition at 0.01 µM: read-out: Inhibition Rate at 10 nM (%); for Inhibition Rate at 500 nM (%): MM.1S, 96 hours; for inhibition at 0.5 µM: read-out: Inhibition Rate at 500 nM (%)
[3] = Western blot, 24 hours of compound treatment, compounds tested at 50 nM and 500 nM (concentration for the table not stated)
[4] = 24 hours treatment, compounds at 50 nM and 500 nM (concentration behind the class not stated)

T1 sequence (P48729 whole entry): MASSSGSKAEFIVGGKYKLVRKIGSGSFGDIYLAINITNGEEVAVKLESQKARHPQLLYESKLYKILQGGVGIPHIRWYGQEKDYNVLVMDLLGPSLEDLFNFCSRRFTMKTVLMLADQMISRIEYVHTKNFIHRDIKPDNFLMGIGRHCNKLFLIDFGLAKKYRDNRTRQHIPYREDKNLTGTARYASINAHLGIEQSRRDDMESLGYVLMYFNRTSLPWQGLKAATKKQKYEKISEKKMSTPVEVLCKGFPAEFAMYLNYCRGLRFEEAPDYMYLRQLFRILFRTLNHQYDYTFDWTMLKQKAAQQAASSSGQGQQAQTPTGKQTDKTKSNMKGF
T1 sequence (Q96SW2 whole entry): as the sequence (Q96SW2 whole entry) above
T1 sequence (Q16531 whole entry partner): as the sequence (Q16531 whole entry partner) above

Structure (SMILES)	CK1α substrate protein remaining % (CK1α; [3])	IKZF 1 substrate protein remaining % (IKZF1; [3])	IKZF2 substrate protein remaining % (IKZF2; [3])	IKZF3 substrate protein remaining % (IKZF3; [3])	Wee1 substrate protein remaining % (WEE1; [3])	GSPT1 substrate protein remaining % (GSPT1; [3])	inhibition at 0.5 µM [1] [%]	inhibition at 2 µM [1] [%]	inhibition at 0.01 µM ([2]; Homo sapiens, MM1.S, 96 h) [%]	Inhibition Rate at 500 nM (%) [2]	IC50 ([1]; CRBN binding, HTRF, 3 hours at room temperature, read-out: HTRF IC50) [nM]	IC50 ([2]; Homo sapiens, MM1.S, 96 h, read-out: Inhibitory activity (IC50, nM) on tumor cell proliferation, MM.1S) [nM]	inhibition at 0.5 µM ([2]; Homo sapiens, MM1.S, 96 h) [%]	CK1α substrate protein remaining % (CK1α; [4])	IKZF 1 substrate protein remaining % (IKZF1; [4])	IKZF2 substrate protein remaining % (IKZF2; [4])	IKZF3 substrate protein remaining % (IKZF3; [4])	Wee1 substrate protein remaining % (WEE1; [4])	GSPT1 substrate protein remaining % (GSPT1; [4])
O=C1CCC(N2Cc3c(CN4C[C@H]5C[C@@H]4CN5c4cccc(Cl)c4Cl)cccc3C2=S)C(=O)N1 (stereo in doubt) [GT-08467, 3-(4-(((1R,4R)-5-(2,3-dichlorophenyl)-2,5-diazabicyclo[2.2.1]heptan-2-yl)methyl)-1-thioxoisoindolin-2-yl)piperidine-2,6-dione]	B (80%< substrate protein remaining %≤ 100%)	B (80%< substrate protein remaining %≤ 100%)	A (0% ≤ substrate protein remaining % ≤ 80%)	B (80%< substrate protein remaining %≤ 100%)	B (80%< substrate protein remaining %≤ 100%)	A (0% ≤ substrate protein remaining % ≤ 80%)	30 to 40	60 to 80	10 to 20	la7	–	–	–	–	–	–	–	–	–
O=C1CCC(N2Cc3cc(CN4CCN(C(c5ccccc5)c5ccccn5)CC4)ccc3C2=S)C(=O)N1 (stereo not drawn) [GT-05103, 3-(5-((4-(phenyl(pyridin-2-yl)methyl)piperazin-1-yl)methyl)-1-thioxoisoindolin-2-yl)piperidine-2,6-dione]	B (80%< substrate protein remaining %≤ 100%)	B (80%< substrate protein remaining %≤ 100%)	B (80%< substrate protein remaining %≤ 100%)	B (80%< substrate protein remaining %≤ 100%)	B (80%< substrate protein remaining %≤ 100%)	A (0% ≤ substrate protein remaining % ≤ 80%)	–	–	–	–	100 to 500	10 to 50	–	–	–	–	–	–	–
O=C1CCC(N2Cc3c(CN4CCC(c5ccccc5F)CC4)cccc3C2=S)C(=O)N1 (stereo not drawn) [GT-08595, 3-(4-((4-(2-fluorophenyl)piperidin-1-yl)methyl)-1-thioxoisoindolin-2-yl)piperidine-2,6-dione]	B (80%< substrate protein remaining %≤ 100%)	B (80%< substrate protein remaining %≤ 100%)	A (0% ≤ substrate protein remaining % ≤ 80%)	B (80%< substrate protein remaining %≤ 100%)	A (0% ≤ substrate protein remaining % ≤ 80%)	B (80%< substrate protein remaining %≤ 100%)	–	–	40 to 50	–	–	–	50 to 60	–	–	–	–	–	–
O=C1CCC(N2Cc3c(CN4CCC(c5ccc(F)cc5)CC4)cccc3C2=S)C(=O)N1 (stereo not drawn) [GT-08596, 3-(4-((4-(4-fluorophenyl)piperidin-1-yl)methyl)-1-thioxoisoindolin-2-yl)piperidine-2,6-dione]	B (80%< substrate protein remaining %≤ 100%)	B (80%< substrate protein remaining %≤ 100%)	A (0% ≤ substrate protein remaining % ≤ 80%)	B (80%< substrate protein remaining %≤ 100%)	A (0% ≤ substrate protein remaining % ≤ 80%)	B (80%< substrate protein remaining %≤ 100%)	–	–	40 to 50	–	–	–	50 to 60	–	–	–	–	–	–
O=C1CCC(N2Cc3c(CN4CC=C(c5ncc6ccsc6n5)CC4)cccc3C2=S)C(=O)N1 (stereo not drawn) [GT-08965, 3-(4-((4-(thieno[2,3-d]pyrimidin-2-yl)-3,6-dihydropyridin-1(2H)-yl)methyl)-1-thioxoisoindolin-2-yl)piperidine-2,6-dione]	–	–	–	–	–	–	80 to 100	80 to 100	30 to 40	–	–	–	40 to 50	–	–	–	–	–	–
O=C1CCC(N2Cc3cc(CN4CCC(C5CCOc6cc(F)ccc65)CC4)ccc3C2=S)C(=O)N1 (stereo not drawn) [GT-09274, 3-(5-((4-(7-fluorochroman-4-yl)piperidin-1-yl)methyl)-1-thioxoisoindolin-2-yl)piperidine-2,6-dione]	–	–	–	–	–	–	60 to 80	80 to 100	30 to 40	–	–	–	40 to 50	–	–	–	–	–	–
O=C1CCC(N2Cc3cc(CN4CCN(c5ncnc6sc(-c7ccccc7)cc56)CC4)ccc3C2=S)C(=O)N1 (stereo not drawn) [GT-09296, 3-(5-((4-(6-phenylthieno[2,3-d]pyrimidin-4-yl)piperazin-1-yl)methyl)-1-thioxoisoindolin-2-yl)piperidine-2,6-dione]	–	–	–	–	–	–	60 to 80	80 to 100	40 to 50	la7	–	–	–	–	–	–	–	–	–
Cc1nc(C2=CCN(Cc3ccc4c(c3)CN(C3CCC(=O)NC3=O)C4=S)CC2)c2c3c(sc2n1)CCC3 (stereo not drawn) [GT-09326, 3-(5-((4-(2-methyl-6,7-dihydro-5H-cyclopenta[4,5]thieno[2,3-d]pyrimidin-4-yl)-3,6-dihydropyridin-1(2H)-yl)methyl)-1-thioxoisoindolin-2-yl)piperidine-2,6-dione]	–	–	–	–	–	–	53 to 60	80 to 100	–	–	–	–	–	B (80%< substrate protein remaining %≤ 100%)	B (80%< substrate protein remaining %≤ 100%)	B (80%< substrate protein remaining %≤ 100%)	B (80%< substrate protein remaining %≤ 100%)	A (0% ≤ substrate protein remaining % ≤ 80%)	A (0% ≤ substrate protein remaining % ≤ 80%)
O=C1CCC(N2Cc3cc(CN4CCN(c5nc(Cl)nc6c5SCC6)CC4)ccc3C2=S)C(=O)N1 (stereo not drawn) [GT-09328, 3-(5-((4-(2-chloro-6,7-dihydrothieno[3,2-d]pyrimidin-4-yl)piperazin-1-yl)methyl)-1-thioxoisoindolin-2-yl)piperidine-2,6-dione]	–	–	–	–	–	–	53 to 60	80 to 100	–	–	–	–	–	B (80%< substrate protein remaining %≤ 100%)	B (80%< substrate protein remaining %≤ 100%)	A (0% ≤ substrate protein remaining % ≤ 80%)	B (80%< substrate protein remaining %≤ 100%)	B (80%< substrate protein remaining %≤ 100%)	B (80%< substrate protein remaining %≤ 100%)
O=C1CCC(N2Cc3cc(CN4CCN(c5nc(N6CCOCC6)nc6ccsc56)CC4)ccc3C2=S)C(=O)N1 (stereo not drawn) [GT-09333, 3-(5-((4-(2-morpholinothieno[3,2-d]pyrimidin-4-yl)piperazin-1-yl)methyl)-1-thioxoisoindolin-2-yl)piperidine-2,6-dione]	–	–	–	–	–	–	60 to 80	80 to 100	–	–	–	–	–	B (80%< substrate protein remaining %≤ 100%)	A (0% ≤ substrate protein remaining % ≤ 80%)	B (80%< substrate protein remaining %≤ 100%)	A (0% ≤ substrate protein remaining % ≤ 80%)	B (80%< substrate protein remaining %≤ 100%)	A (0% ≤ substrate protein remaining % ≤ 80%)
O=C1CCC(N2Cc3cc(CN4CCN(c5nc(N6CCNCC6)c6sccc6n5)CC4)ccc3C2=S)C(=O)N1 (stereo not drawn) [GT-09365, 3-(5-((4-(4-(piperazin-1-yl)thieno[3,2-d]pyrimidin-2-yl)piperazin-1-yl)methyl)-1-thioxoisoindolin-2-yl)piperidine-2,6-dione]	–	–	–	–	–	–	60 to 80	80 to 100	–	–	–	–	–	A (0% ≤ substrate protein remaining % ≤ 80%)	A (0% ≤ substrate protein remaining % ≤ 80%)	B (80%< substrate protein remaining %≤ 100%)	B (80%< substrate protein remaining %≤ 100%)	B (80%< substrate protein remaining %≤ 100%)	A (0% ≤ substrate protein remaining % ≤ 80%)
